Source: patent US20170088546A1 (priority 2014, published 2017)
Read-outs that look alike come from different tables or passages of the source.

Key:
[1] = molecular target: Smurf-2 (Homo sapiens, UniProt Q9HAU4); assay: HECT E3 ligase autoubiquitinylation TR-FRET assay, Smurf-2; assay type: biochemical
From the text: (§1) To determine the HECT E3 ligase selectivity of the compounds, a panel of biochemical HECT E3 ligase autoubiquitinylation assays was employed (Smurf-1, Smurf-2, WWP1, WWP2, ITCH, Nedd4, Nedd4L and E6AP). The conjugation of ubiquitin to a protein substrate is a multistep process. In an initial ATP-requiring step, a thioester bond is formed between the carboxyl terminus of ubiquitin and an internal cystein residue of the ubiquitin-activating enzyme (E1). Activated ubiquitin is then transferred to a specific cystein residue of an ubiquitin-conjugating enzyme (E2). E2s donate ubiquitin to a HECT E3 ligase (E3) from which it is transferred to the substrate protein. HECT E3 ligases can auto-ubiquitinylate. This event is detected in the TR-FRET (Time-Resolved Fluorescence Resonance Energy Transfer) assay used in this panel. The reaction mix contains E1, E2, tagged-E3, biotin-conjugated ubiquitin, the compound and ATP in a suitable buffer and is incubated for 45 minutes to allow auto-ubiquitinylation of the E3 ligase. To measure the extent of ubiquitinylated E3 ligase by TR-FRET, the donor fluorophore Europium cryptate (Eu3+ cryptate), conjugated to streptavidin which subsequently binds to biotinylated ubiquitin, and the modified allophycocyanin XL665 (HTRF® primary acceptor fluorophore) coupled to a tag-specific antibody (HA, His or GST), which recognizes the respective E3 ligase fusion proteins, are added after the reaction is complete. When these two fluorophores are brought together by a biomolecular interaction (in this case ubiquitinylation of the E3 ligase), a portion of the energy captured by the Cryptate during excitation is released through fluorescence emission at 620 nm, while the remaining energy is transferred to XL665. This energy is then released by XL665 as specific fluorescence at 665 nm. Light at 665 nm is emitted only through FRET with Europium.
(§2) Test and reference compounds are prepared at 180×[final] in 90% DMSO, and diluted 1:3 in 90% DMSO.
(§3) For the biochemical assay panel, 50 nl of the test compounds, reference compounds and buffer/DMSO control are transferred to the respective wells of a 384-well white GREINER “SMALL VOLUME” PS plate. The assay panel is run at room temperature on a Biomek FX liquid handling workstation. To the assay plates containing 50 nl compound or control solutions in 90% DMSO, 4.5 ul of E3 ligase solution were added per well, followed by 4.5 ul of the pre-incubated E1/E2/Ub mix or the pre-diluted ubiquitin (LOW control). Plates are shaken vigorously after each addition. In this assay the compound concentrations range from 3 nM to 10 uM in an 8-point dose-response curve.
(§4) After an incubation time of 45 min in the dark, the plates are transferred into the Pherastar fluorescence reader to measure the TR-FRET signal.

[2] = molecular target: Smurf-1 (Homo sapiens, UniProt Q9HCE7); assay: biochemical; assay type: biochemical; conditions: biochemical autoubiquitinylation TR-FRET, 45 min incubation, 8-point dose-response 3 nM to 10 uM
From the text: as §1, §2, §3, §4

[3] = biochemical autoubiquitinylation TR-FRET, 45 min incubation, 8-point dose-response 3 nM to 10 uM, read-out: Smurf-2/IC50

Sequence of Smurf-1 (Q9HCE7 whole entry): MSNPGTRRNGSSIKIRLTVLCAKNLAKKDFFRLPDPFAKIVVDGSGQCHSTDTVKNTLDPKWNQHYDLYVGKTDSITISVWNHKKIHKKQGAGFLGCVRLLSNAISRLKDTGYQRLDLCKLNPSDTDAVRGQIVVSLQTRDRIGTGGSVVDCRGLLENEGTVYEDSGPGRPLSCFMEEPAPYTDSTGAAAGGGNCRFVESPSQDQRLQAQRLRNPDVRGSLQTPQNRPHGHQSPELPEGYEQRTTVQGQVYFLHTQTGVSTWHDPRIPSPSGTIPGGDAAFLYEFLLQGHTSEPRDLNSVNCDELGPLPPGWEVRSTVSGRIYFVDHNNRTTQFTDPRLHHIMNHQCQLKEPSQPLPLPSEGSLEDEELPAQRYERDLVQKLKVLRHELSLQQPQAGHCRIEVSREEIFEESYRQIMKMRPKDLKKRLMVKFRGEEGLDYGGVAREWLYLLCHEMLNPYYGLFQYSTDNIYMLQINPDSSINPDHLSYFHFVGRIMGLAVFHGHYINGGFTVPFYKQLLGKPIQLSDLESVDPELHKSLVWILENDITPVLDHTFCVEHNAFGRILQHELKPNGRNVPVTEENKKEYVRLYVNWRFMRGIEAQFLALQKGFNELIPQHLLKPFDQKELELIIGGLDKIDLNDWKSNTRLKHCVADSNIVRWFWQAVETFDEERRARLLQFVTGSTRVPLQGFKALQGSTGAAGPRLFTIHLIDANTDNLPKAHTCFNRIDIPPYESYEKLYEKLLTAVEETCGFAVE
Sequence of Smurf-2 (Q9HAU4 whole entry, species assumed): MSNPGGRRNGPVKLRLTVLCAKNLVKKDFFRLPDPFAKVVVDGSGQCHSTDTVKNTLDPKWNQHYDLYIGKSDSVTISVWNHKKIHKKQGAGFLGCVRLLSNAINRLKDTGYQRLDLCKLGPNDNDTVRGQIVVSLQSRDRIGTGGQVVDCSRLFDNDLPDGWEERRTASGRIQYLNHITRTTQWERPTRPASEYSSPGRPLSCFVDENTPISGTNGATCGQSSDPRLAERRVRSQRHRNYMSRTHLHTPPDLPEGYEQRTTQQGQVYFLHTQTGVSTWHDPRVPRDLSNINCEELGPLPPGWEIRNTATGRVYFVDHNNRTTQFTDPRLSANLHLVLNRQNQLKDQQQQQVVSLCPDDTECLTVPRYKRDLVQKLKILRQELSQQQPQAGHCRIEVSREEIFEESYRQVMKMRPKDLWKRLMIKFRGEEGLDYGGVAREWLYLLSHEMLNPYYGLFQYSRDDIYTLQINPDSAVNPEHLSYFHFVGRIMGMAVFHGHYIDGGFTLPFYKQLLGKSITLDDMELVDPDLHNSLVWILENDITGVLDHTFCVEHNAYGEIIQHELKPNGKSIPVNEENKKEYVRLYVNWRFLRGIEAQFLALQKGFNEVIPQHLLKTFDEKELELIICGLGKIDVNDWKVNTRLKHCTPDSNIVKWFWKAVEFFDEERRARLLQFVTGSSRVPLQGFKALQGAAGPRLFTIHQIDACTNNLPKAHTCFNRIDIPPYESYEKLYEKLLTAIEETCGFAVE

Row | Structure (SMILES) | IC50 [1, 3] [µM] | IC50 [2] [µM] | IC50 [1] [µM]
1 | CCc1ccc2c(c1)CCCc1c(C(=O)Nc3c(C)n(C)n(-c4ccc(F)cc4)c3=O)noc1-2 [Example 13, 8-ethyl-N-(2-(4-fluorophenyl)-1,5-dimethyl-3-oxo-2,3-dihydro-1H-pyrazol-4-yl)-5,6-dihydro-4H-benzo[3,4]cyclohepta[1,2-d]isoxazole-3-carboxamide] | 7.85 | 0.273 | –
2 | COc1ccc2c(c1)CCCc1c(C(=O)Nc3c(C)n(C)n(Cc4ccccc4)c3=O)noc1-2 [Example 32, N-(2-benzyl-1,5-dimethyl-3-oxo-2,3-dihydro-1H-pyrazol-4-yl)-8-methoxy-5,6-dihydro-4H-benzo[3,4]cyclohepta[1,2-d]isoxazole-3-carboxamide] | – | 0.695 | > 10
3 | COc1ccc2c(c1)CCCc1c(C(=O)Nc3c(C(F)(F)F)n(C)n(-c4ccccc4)c3=O)noc1-2 [Example 38, 8-methoxy-N-(1-methyl-3-oxo-2-phenyl-5-(trifluoromethyl)-2,3-dihydro-1H-pyrazol-4-yl)-5,6-dihydro-4H-benzo[3,4]cyclohepta[1,2-d]isoxazole-3-carboxamide] | – | 0.865 | > 10
4 | COc1ccc2c(c1)CCCc1c(C(=O)Nc3c(C)n(C)n(-c4ccc(Cl)cc4)c3=O)noc1-2 [Example 29, N-(2-(4-chlorophenyl)-1,5-dimethyl-3-oxo-2,3-dihydro-1H-pyrazol-4-yl)-8-methoxy-5,6-dihydro-4H-benzo[3,4]cyclohepta[1,2-d]isoxazole-3-carboxamide] | – | 1.06 | > 10
5 | Cc1c(NC(=O)c2noc3c2CC2C(c4ccccc4-3)C2(Cl)Cl)c(=O)n(-c2ccccc2)n1C (centres unmarked) [Example 50, 9,9-dichloro-N-(1,5-dimethyl-3-oxo-2-phenyl-2,3-dihydro-1H-pyrazol-4-yl)-8,8a,9,9a-tetrahydrobenzo[3,4]cyclopropa[5,6]cyclohepta[1,2-d]isoxazole-7-carboxamide] | – | 0.463 | > 10
6 | Cc1ccc(-n2c(=O)c(NC(=O)c3noc4c3CCc3cc(OC(C)C)ccc3-4)c(C)n2C)cc1 [Example 11, N-(1,5-dimethyl-3-oxo-2-(p-tolyl)-2,3-dihydro-1H-pyrazol-4-yl)-7-isopropoxy-4,5-dihydronaphtho[2,1-d]isoxazole-3-carboxamide] | – | 1.42 | > 10
7 | Cc1c(NC(=O)c2noc3c2CCSc2cc(OC(F)(F)F)ccc2-3)c(=O)n(-c2ccccc2F)n1C [Example 46, N-(2-(2-fluorophenyl)-1,5-dimethyl-3-oxo-2,3-dihydro-1H-pyrazol-4-yl)-8-(trifluoromethoxy)-4,5-dihydrobenzo[6,7]thiepino[4,5-d]isoxazole-3-carboxamide] | – | 0.0315 | > 10
8 | Cc1c(NC(=O)c2noc3c2CCSc2cc(OC(F)(F)F)ccc2-3)c(=O)n(C2CCCCC2)n1C [Example 4, N-(2-Cyclohexyl-1,5-dimethyl-3-oxo-2,3-dihydro-1H-pyrazol-4-yl)-8-(trifluoromethoxy)-4,5-dihydrobenzo[6,7]thiepino[4,5-d]isoxazole-3-carboxamide] | 0.725 | 0.0026 | –
9 | COc1ccc2c(c1)CCCCc1c(C(=O)Nc3c(C)n(C)n(-c4ccccc4F)c3=O)noc1-2 [Example 53, N-(2-(2-fluorophenyl)-1,5-dimethyl-3-oxo-2,3-dihydro-1H-pyrazol-4-yl)-9-methoxy-4,5,6,7-tetrahydrobenzo[3,4]cycloocta[1,2-d]isoxazole-3-carboxamide] | – | 0.133 | > 10
10 | COc1ccc2c(c1)CCCc1c(C(=O)Nc3c(C)n(C)n(C4CCCCC4)c3=O)noc1-2 [Example 35, N-(2-cyclohexyl-1,5-dimethyl-3-oxo-2,3-dihydro-1H-pyrazol-4-yl)-8-methoxy-5,6-dihydro-4H-benzo[3,4]cyclohepta[1,2-d]isoxazole-3-carboxamide] | 1.05 | 0.0059 | –
11 | COc1ccc2c(c1)CCCc1c(C(=O)Nc3c(C)n(C)n(-c4ccccc4Cl)c3=O)noc1-2 [Example 27, N-(2-(2-chlorophenyl)-1,5-dimethyl-3-oxo-2,3-dihydro-1H-pyrazol-4-yl)-8-methoxy-5,6-dihydro-4H-benzo[3,4]cyclohepta[1,2-d]isoxazole-3-carboxamide] | 5.8 | 0.125 | –
12 | COc1ccc(Cn2c(=O)c(NC(=O)c3noc4c3CCCc3cc(OC)ccc3-4)c(C)n2C)cc1 [Example 55, 8-methoxy-N-(2-(4-methoxybenzyl)-1,5-dimethyl-3-oxo-2,3-dihydro-1H-pyrazol-4-yl)-5,6-dihydro-4H-benzo[3,4]cyclohepta[1,2-d]isoxazole-3-carboxamide] | – | 9.9 | > 10
13 | CCn1c(C)c(NC(=O)c2noc3c2CCCc2cc(OC)ccc2-3)c(=O)n1-c1ccccc1Cl [Example 30, N-(2-(2-chlorophenyl)-1-ethyl-5-methyl-3-oxo-2,3-dihydro-1H-pyrazol-4-yl)-8-methoxy-5,6-dihydro-4H-benzo[3,4]cyclohepta[1,2-d]isoxazole-3-carboxamide] | 6.85 | 0.68 | –
14 | Cc1c(NC(=O)c2noc3c2CCSc2ccccc2-3)c(=O)n(-c2ccccc2)n1C [Example 47, N-(1,5-dimethyl-3-oxo-2-phenyl-2,3-dihydro-1H-pyrazol-4-yl)-4,5-dihydrobenzo[6,7]thiepino[4,5-d]isoxazole-3-carboxamide] | – | 1.13 | > 10
15 | Cc1c(NC(=O)c2noc3c2CCCc2cc(OC(F)(F)F)ccc2-3)c(=O)n(-c2ccccc2)n1C [Example 39, N-(1,5-dimethyl-3-oxo-2-phenyl-2,3-dihydro-1H-pyrazol-4-yl)-8-(trifluoromethoxy)-5,6-dihydro-4H-benzo[3,4]cyclohepta[1,2-d]isoxazole-3-carboxamide] | 5.55 | 0.2 | –
16 | Cc1c(NC(=O)c2noc3c2CCCc2cc(OC(F)(F)F)ccc2-3)c(=O)n(-c2c(Cl)cccc2Cl)n1C [Example 41, N-(2-(2,6-dichlorophenyl)-1,5-dimethyl-3-oxo-2,3-dihydro-1H-pyrazol-4-yl)-8-(trifluoromethoxy)-5,6-dihydro-4H-benzo[3,4]cyclohepta[1,2-d]isoxazole-3-carboxamide] | 0.39 | 0.0045 | –
17 | Cc1c(NC(=O)c2noc3c2CCc2cc(CC(C)C)ccc2-3)c(=O)n(-c2ccccc2)n1C [Example 1, N-(1,5-Dimethyl-3-oxo-2-phenyl-2,3-dihydro-1H-pyrazol-4-yl)-7-isobutyl-4,5-dihydronaphtho[2,1-d]isoxazole-3-carboxamide] | 5.6 | 0.24 | –
18 | Cc1c(NC(=O)c2noc3c2CCCCc2ccccc2-3)c(=O)n(-c2ccccc2)n1C [Example 51, N-(1,5-dimethyl-3-oxo-2-phenyl-2,3-dihydro-1H-pyrazol-4-yl)-4,5,6,7-tetrahydrobenzo[3,4]cycloocta[1,2-d]isoxazole-3-carboxamide] | – | 0.657 | > 10
19 | COc1ccc2c(c1)CCCc1c(C(=O)Nc3c(C)n(C)n(-c4cccc(Cl)c4)c3=O)noc1-2 [Example 28, N-(2-(3-chlorophenyl)-1,5-dimethyl-3-oxo-2,3-dihydro-1H-pyrazol-4-yl)-8-methoxy-5,6-dihydro-4H-benzo[3,4]cyclohepta[1,2-d]isoxazole-3-carboxamide] | – | 0.66 | > 10
